Source: patent US20150125915A1, “Method for Producing Lactic Acid” (Kao Corporation, priority 2012, published 2015)

Columns and labels:
Type in all cases: cell-based
[1] = tested on: Rhizopus oryzae JCM14625 strain (=NBRC 5384); test: Evaluation of ability to produce lactic acid-3 (surfactant concentration in the spore germination medium); details: no surfactant = 100
Description: (1) 200 mL of a PDB medium non-supplemented or supplemented with 0.01, 0.05, 0.25, 0.50, 1.0, 1.5, or 2.5% (w/v) (final concentration) of sorbitan monolaurate (Rheodol(R) SP-L10, manufactured by Kao Corp.) was applied to a 500-mL baffled Erlenmeyer flask (manufactured by Asahi Glass Co., Ltd.). The Rhizopus oryzae spore suspension prepared in Production Example 1 was inoculated thereto at a dose of 1×10^3 spores/mL of the medium and then cultured at 27° C. for 3 days with stirring at 110 rpm.
(2) The cultures were filtered through a filter support and a nylon net filter of 180 μm mesh size (manufactured by EMD Millipore) sterilized in advance to recover fungus bodies onto the filter. From 2.0 to 3.0 g of the recovered fungus bodies was inoculated to 100 mL of an inorganic culture medium (composition: 10% glucose, 0.1% ammonium sulfate, 0.06% potassium dihydrogen phosphate, 0.025% magnesium sulfate heptahydrate, 0.009% zinc sulfate heptahydrate, and 5.0% calcium carbonate; all the concentrations mean % (w/v)) applied to a 500-mL Erlenmeyer flask, and then cultured at 27° C. for approximately 40 hours with stirring at 220 rpm.
(3) Control conditions in the absence of the surfactant involved culturing spores with stirring by the same procedures as in (1) using a PDB medium non-supplemented with the surfactant and then inoculating from 4 to 8 mL of the PDB seed culture medium to 100 mL of the inorganic culture medium by the same procedures as in (2), followed by culture.
(4) Subsequently, the cultures thus obtained by culture in the inorganic culture medium were filtered through a filter support and a nylon net filter of 180 μm mesh size (manufactured by EMD Millipore) sterilized in advance to recover fungus bodies onto the filter. On this filter, the fungus bodies were further washed with from 50 to 200 mL of saline to obtain fungus bodies.
30 g of the prepared wet fungus bodies of the genus Rhizopus was inoculated to 100 mL of an inorganic culture medium for lactic acid production evaluation (composition: 12.5% glucose, 0.1% ammonium sulfate, 0.06% potassium dihydrogen phosphate, 0.025% magnesium sulfate heptahydrate, 0.009% zinc sulfate heptahydrate, and 6.25% calcium carbonate; all the concentrations mean % (w/v)) and then cultured at 33.5° C. with stirring at 170 rpm. The fungus body-free supernatant of the culture medium was recovered every 1 hour from 30 minutes after the fungus body inoculation. Glucose and lactic acid were quantified by the procedures described later in Reference Example 1. A relative value of the production rate of lactic acid was determined on the basis of the calculation method described in Reference Example 2.
The concentration of lactic acid (unit: g of lactic acid/L of medium) in the supernatant sample of each culture medium was measured according to Reference Example 1 and divided by a time (unit: hr) required for change in lactic acid concentration to calculate the production rate of lactic acid per unit time (unit: g of lactic acid/L/hr). In addition, a relative value to the production rate of lactic acid under control conditions in each Production Example was determined.

[2] = tested on: Rhizopus oryzae NBRC 4785; test: Evaluation of ability to produce lactic acid-2, strain NBRC 4785; details: 0.5% (w/v) at spore germination, control of the strain without surfactant = 100
Description: (§1) (1) Spore suspensions were prepared in the same way as in Production Example 1 using Rhizopus oryzae NBRC 4707, NBRC 4785, NBRC 5384 (=JCM14625), and NBRC 5418 strains obtained from a culture collection NBRC.
(§2) (2) Mycelia were prepared from the spores of each strain under the same conditions as in Production Example 2 involving stirring at 100 rpm using 60 mL of a PDB medium non-supplemented or supplemented with 0.5% (w/v) (final concentration) of the surfactant sorbitan monolaurate (Rheodol(R) SP-L10, manufactured by Kao Corp.).
(§3) (3) The total amount of the fungus bodies obtained in (2) was inoculated to 100 mL of an inorganic culture medium under the same conditions as in Production Example 3 to grow the mycelia. […]
(§4) 30 g of the prepared wet fungus bodies of each strain of the genus Rhizopus was inoculated to 100 mL of an inorganic culture medium for lactic acid production evaluation (composition: 12.5% glucose, 0.1% ammonium sulfate, 0.06% potassium dihydrogen phosphate, 0.025% magnesium sulfate heptahydrate, 0.009% zinc sulfate heptahydrate, and 6.25% calcium carbonate; all the concentrations mean % (w/v)) applied to a 500-mL Erlenmeyer flask, and then cultured at 33.5° C. with stirring at 170 rpm. The production rate of lactic acid was determined by the same procedures as in Test Example 2. […]

[3] = tested on: Rhizopus oryzae NBRC 5384 (=JCM14625); test: Evaluation of ability to produce lactic acid-2, strain NBRC 5384; details: 0.5% (w/v) at spore germination, control of the strain without surfactant = 100
Description: as §1, §2, §3, §4

Sorbitan monolaurate
Production rate of lactic acid (relative value) ([1]; 0.01% w/v in germination medium): 119 relative value | Production rate of lactic acid (relative value) ([1]; 0.05% w/v in germination medium): 133 relative value | Production rate of lactic acid (relative value) ([1]; 0.25% w/v in germination medium): 116 relative value | Production rate of lactic acid (relative value) ([1]; 0.50% w/v in germination medium): 138 relative value | Production rate of lactic acid (relative value) ([1]; 1.00% w/v in germination medium): 140 relative value | Production rate of lactic acid (relative value) ([1]; 1.50% w/v in germination medium): 117 relative value | Production rate of lactic acid (relative value) ([1]; 2.50% w/v in germination medium): 98 relative value | Production rate of lactic acid (relative value) [2]: 170 relative value | Production rate of lactic acid (relative value) [3]: 130 relative value
